Reference: patent US20260199368A1, “[…] SYSTEM CONTAINING REMIMAZOLAM” (LTS LOHMANN THERAPIE-SYSTEME AG, priority 2022, published 2026)

Assays:
[1] = In vivo studies using Goettingen minipigs: RMZ and CNS7054 plasma pharmacokinetics and bioavailability; conditions: IV, 10 mg
Method: In order to assess the pharmacokinetic profile and effect of buccally administered oromucosal delivery systems containing remimazolam besylate, in vivo experiments using Goettingen minipigs (female, about 3 months old, body weight was 7 kg at the start of the study) were conducted. Three minipigs were used. A single oromucosal delivery system of Examples 1c (foam) and 1d (hotmelt), prepared as described above, with a nominal amount of 20 mg remimazolam (formulated as 27.2 mg nominal remimazolam besylate), was used per animal (with the exception of animal No 3 in Phase 1, where only half of an oromucosal delivery system of each type was placed in each side). The oromucosal delivery system foam was cut into two pieces to fit on the buccal mucosa.
The dose was given by buccal administration (oromucosal delivery system; hotmelt and foam) or IV administration (10 mg remimazolam formulated as remimazolam besylate according to the treatment schedule shown in table 9. No less than 48 hours were allowed between dosing occasions to allow for proper wash-out. The treatment with the oromucosal delivery systems was performed as follows: • 1. The animals were anaesthetized by mask with isoflurane to obtain sufficient depth of anesthesia to facilitate the placement of the oromucosal delivery system without stressing the animals. The length and concentration of isoflurane anesthesia was similar in all animals. • 2. The oromucosal delivery system was placed on the buccal mucosa. A small amount of saline was applied to the mucosa to facilitate the dissolution process on a single occasion in Phase 1. • 3. The mouth of the minipigs was closed for 1-2 minutes and then opened to check for completely dissolved oromucosal delivery system. If the oromucosal delivery system was not dissolved further checks were performed with intervals of 1-2 minutes, as required. • 4. The isoflurane treatment was stopped as soon as the oromucosal delivery system was dissolved.
In order to evaluate the bioavailability, the animals also received a single intravenous (IV) dose. The IV dose volume was administered as a bolus over a period of approximately 1 minute.
The RMZ IV dose formulation was prepared in glass containers. To prepare said formulation of nominal 5 mg/mL (stock solution), a drug product vial (50 mg of RZM powder) was reconstituted with 10 mL of 0.9% w/v sodium chloride solution. The reconstituted solutions of RMZ were clear and colorless to slightly yellow. The reconstituted RMZ drug product was used within 24 hours.
After each dosing in phase 2-4, blood samples were taken from all animals. Blood samples were collected at 8 time points following application of the oromucosal delivery systems. Samples were collected at the following time points: pre-treatment, and 2, 5, 10, 20, 40, 60 and 90 minutes post-treatment.
RMZ concentrations and CNS7054 concentrations in minipig plasma were determined using a validated liquid-liquid extraction followed by LC-MS/MS. All samples, collected before treatment start, were measured to be below the limit of quantification (0.100 ng/mL).
Individual plasma concentrations are listed in Table 13 and are graphically depicted in FIGS. 3a to 5b. Additionally, basic pharmacokinetic parameters such as maximal plasma concentration (cmax), time to reaching it (tmax) and exposure defined as Area Under the Curve (AUC0-t) are summarized in Table 13 for each individual animal for both RMZ and CNS7054 and following IV administration or administration of either of the two oromucosal delivery system formulations.
For the evaluation of the bioavailability (BA), dose-normalized cmax (cmax/D) and dose-normalized AUC (AUC0-t/D) were determined for the two oromucosal delivery system formulations for RMZ and CNS7054.

[2] = pH and appearance of permeation donor solutions; assay type: physicochemical; conditions: Artificial Saliva
Method: The permeated amount and the corresponding mucosa permeation rates of the oromucosal delivery system prepared according to Examples 2a were determined by in vitro experiments in accordance with the OECD Guideline (adopted Apr. 13, 2004) using pig mucosa with a thickness of 400 μm (mucosa oesophagus). The donor solutions were prepared by dissolving a sample film of Example 2a with a size of 5.75 cm^2 either in 5 ml artificial saliva or in 5 ml 0.9% NaCl. The remimazolam besylate was dissolved in artificial saliva so that the applied dose of RMZ was equivalent to an oromucosal delivery system containing 50 mg remimazolam in 500 μL medium, and the pH of the mixture was adjusted as indicated in Table 19. The pH was measured using a pH electrode. The permeation donor solutions were directly applied to the mucosa (diffusion area of 4.524 cm^2). The remimazolam permeated amount in the receptor medium (phosphate buffer solution pH 7.4) at a temperature of 37±1° C. was measured and the corresponding mucosa permeation rate calculated.
Due to the high variability in permeation run 1 (n=3), a second permeation experiment was performed with more replicates (n=6) to enlarge the data basis. The samples used are defined in table 15. Example 2a and Lyophilizate were dissolved in artificial saliva and 0.9% NaCl, respectively. Due to a pH adjustment in the lyophilizate/drug product, the resulting pH was slightly lower (pH 3.14 and pH 3.09) than with the Example 2a without pH adjustment (pH 3.67 and pH 3.50). A RMZ sample set to pH 3 served as a control.

Question: For `COC(=O)CC[C@@H]1N=C(c2ccccn2)c2cc(Br)ccc2-n2c(C)cnc21.O=S(=O)(O)c1ccccc1` [RMZ, remimazolam besylate], which CNS7054 plasma concentration ([1]; Animal No 1, 1 min) is on record?
Answer: The CNS7054 plasma concentration was 108 ng/mL.

Question: What about the Remimazolam plasma concentration ([1]; Animal No 1, 1 min) of the same compound?
Answer: Its Remimazolam plasma concentration is 1032 ng/mL.

Question: And the CNS7054 plasma concentration ([1]; Animal No 1, 5 min)?
Answer: Its CNS7054 plasma concentration is 224 ng/mL.

Question: And the Remimazolam plasma concentration ([1]; Animal No 1, 5 min)?
Answer: The Remimazolam plasma concentration was 767 ng/mL.

Question: What about the CNS7054 plasma concentration ([1]; Animal No 1, 10 min) of the same compound?
Answer: Its CNS7054 plasma concentration is 283 ng/mL.

Question: And the Remimazolam plasma concentration ([1]; Animal No 1, 10 min)?
Answer: The Remimazolam plasma concentration was 389.5 ng/mL.

Question: What about the CNS7054 plasma concentration ([1]; Animal No 1, 20 min) of the same compound?
Answer: The CNS7054 plasma concentration was 423 ng/mL.

Question: What about the Remimazolam plasma concentration ([1]; Animal No 1, 20 min) of the same compound?
Answer: The Remimazolam plasma concentration was 285.5 ng/mL.

Question: And the CNS7054 plasma concentration ([1]; Animal No 1, 40 min)?
Answer: Its CNS7054 plasma concentration is 406 ng/mL.

Question: And the Remimazolam plasma concentration ([1]; Animal No 1, 40 min)?
Answer: The Remimazolam plasma concentration was 149.3 ng/mL.

Question: What about the CNS7054 plasma concentration ([1]; Animal No 1, 60 min) of the same compound?
Answer: Its CNS7054 plasma concentration is 329 ng/mL.

Question: What about the Remimazolam plasma concentration ([1]; Animal No 1, 60 min) of the same compound?
Answer: Its Remimazolam plasma concentration is 76.1 ng/mL.

Question: And the CNS7054 plasma concentration ([1]; Animal No 1, 90 min)?
Answer: The CNS7054 plasma concentration was 302 ng/mL.

Question: And the Remimazolam plasma concentration ([1]; Animal No 1, 90 min)?
Answer: Its Remimazolam plasma concentration is 40.6 ng/mL.

Question: What about the “CNS7054 AUC0-t” value ([1]; Animal No 1) of the same compound?
Answer: Its value is 30508.5 ng·min/mL.

Question: What about the CNS7054 cmax ([1]; Animal No 1) of the same compound?
Answer: The CNS7054 cmax was 423 ng/mL.

Question: And the CNS7054 tmax ([1]; Animal No 1)?
Answer: Its CNS7054 tmax is 20 min.

Question: What about the “Remimazolam AUC0-t” value ([1]; Animal No 1) of the same compound?
Answer: The value was 18349.25 ng·min/mL.

Question: What about the Remimazolam cmax ([1]; Animal No 1) of the same compound?
Answer: Its Remimazolam cmax is 1032 ng/mL.

Question: What about the Remimazolam tmax ([1]; Animal No 1) of the same compound?
Answer: Its Remimazolam tmax is 2 min.

Question: And the CNS7054 plasma concentration ([1]; Animal No 2, 1 min)?
Answer: Its CNS7054 plasma concentration is 539 ng/mL.

Question: What about the Remimazolam plasma concentration ([1]; Animal No 2, 1 min) of the same compound?
Answer: The Remimazolam plasma concentration was 1244 ng/mL.

Question: What about the CNS7054 plasma concentration ([1]; Animal No 2, 5 min) of the same compound?
Answer: Its CNS7054 plasma concentration is 707 ng/mL.

Question: And the Remimazolam plasma concentration ([1]; Animal No 2, 5 min)?
Answer: Its Remimazolam plasma concentration is 432 ng/mL.

Question: And the CNS7054 plasma concentration ([1]; Animal No 2, 10 min)?
Answer: The CNS7054 plasma concentration was 851 ng/mL.

Question: And the Remimazolam plasma concentration ([1]; Animal No 2, 10 min)?
Answer: The Remimazolam plasma concentration was 469 ng/mL.

Question: What about the CNS7054 plasma concentration ([1]; Animal No 2, 20 min) of the same compound?
Answer: The CNS7054 plasma concentration was 783 ng/mL.

Question: What about the Remimazolam plasma concentration ([1]; Animal No 2, 20 min) of the same compound?
Answer: Its Remimazolam plasma concentration is 208.8 ng/mL.

Question: And the CNS7054 plasma concentration ([1]; Animal No 2, 40 min)?
Answer: The CNS7054 plasma concentration was 508 ng/mL.

Question: And the Remimazolam plasma concentration ([1]; Animal No 2, 40 min)?
Answer: The Remimazolam plasma concentration was 52.6 ng/mL.

Question: And the CNS7054 plasma concentration ([1]; Animal No 2, 60 min)?
Answer: Its CNS7054 plasma concentration is 267 ng/mL.

Question: What about the CNS7054 plasma concentration ([1]; Animal No 2, 90 min) of the same compound?
Answer: The CNS7054 plasma concentration was 170 ng/mL.

Question: And the “CNS7054 AUC0-t” value ([1]; Animal No 2)?
Answer: Its value is 41688 ng·min/mL.

Question: And the CNS7054 cmax ([1]; Animal No 2)?
Answer: Its CNS7054 cmax is 851 ng/mL.

Question: What about the CNS7054 tmax ([1]; Animal No 2) of the same compound?
Answer: The CNS7054 tmax was 10 min.

Question: And the “Remimazolam AUC0-t” value ([1]; Animal No 2)?
Answer: Its value is 12539.5 ng·min/mL.

Question: And the Remimazolam cmax ([1]; Animal No 2)?
Answer: Its Remimazolam cmax is 1244 ng/mL.

Question: What about the Remimazolam tmax ([1]; Animal No 2) of the same compound?
Answer: Its Remimazolam tmax is 2 min.

Question: And the CNS7054 plasma concentration ([1]; Animal No 3, 1 min)?
Answer: The CNS7054 plasma concentration was 387 ng/mL.

Question: And the Remimazolam plasma concentration ([1]; Animal No 3, 1 min)?
Answer: The Remimazolam plasma concentration was 654 ng/mL.

Question: And the CNS7054 plasma concentration ([1]; Animal No 3, 5 min)?
Answer: The CNS7054 plasma concentration was 815 ng/mL.

Question: What about the Remimazolam plasma concentration ([1]; Animal No 3, 5 min) of the same compound?
Answer: Its Remimazolam plasma concentration is 353.9 ng/mL.

Question: What about the CNS7054 plasma concentration ([1]; Animal No 3, 10 min) of the same compound?
Answer: The CNS7054 plasma concentration was 798 ng/mL.

Question: And the Remimazolam plasma concentration ([1]; Animal No 3, 10 min)?
Answer: Its Remimazolam plasma concentration is 201 ng/mL.

Question: And the CNS7054 plasma concentration ([1]; Animal No 3, 20 min)?
Answer: Its CNS7054 plasma concentration is 770 ng/mL.

Question: And the Remimazolam plasma concentration ([1]; Animal No 3, 20 min)?
Answer: The Remimazolam plasma concentration was 124.3 ng/mL.

Question: What about the CNS7054 plasma concentration ([1]; Animal No 3, 40 min) of the same compound?
Answer: The CNS7054 plasma concentration was 625 ng/mL.

Question: What about the Remimazolam plasma concentration ([1]; Animal No 3, 40 min) of the same compound?
Answer: Its Remimazolam plasma concentration is 41.2 ng/mL.

Question: What about the CNS7054 plasma concentration ([1]; Animal No 3, 60 min) of the same compound?
Answer: The CNS7054 plasma concentration was 423 ng/mL.

Question: What about the Remimazolam plasma concentration ([1]; Animal No 3, 60 min) of the same compound?
Answer: The Remimazolam plasma concentration was 52.2 ng/mL.

Question: And the CNS7054 plasma concentration ([1]; Animal No 3, 90 min)?
Answer: The CNS7054 plasma concentration was 123 ng/mL.

Question: And the “CNS7054 AUC0-t” value ([1]; Animal No 3)?
Answer: Its value is 46682.5 ng·min/mL.

Question: And the CNS7054 cmax ([1]; Animal No 3)?
Answer: Its CNS7054 cmax is 815 ng/mL.

Question: What about the CNS7054 tmax ([1]; Animal No 3) of the same compound?
Answer: Its CNS7054 tmax is 5 min.

Question: What about the “Remimazolam AUC0-t” value ([1]; Animal No 3) of the same compound?
Answer: The value was 8551.6 ng·min/mL.

Question: What about the Remimazolam cmax ([1]; Animal No 3) of the same compound?
Answer: Its Remimazolam cmax is 654 ng/mL.

Question: And the Remimazolam tmax ([1]; Animal No 3)?
Answer: The Remimazolam tmax was 2 min.

Question: And the “Appearance of Donor Solution” value ([2]; run 1, set pH 2)?
Answer: The value was “Clear solution”.

Question: And the “Appearance of Donor Solution” value ([2]; run 1, set pH 3)?
Answer: Its value is “Little RMZ solid”.

Question: What about the “Appearance of Donor Solution” value ([2]; run 1, set pH 4.5) of the same compound?
Answer: Its value is “Much RMZ solid”.

Question: What about the “Appearance of Donor Solution” value ([2]; run 1, set pH 6) of the same compound?
Answer: Its value is “Very much RMZ solid”.

Question: And the “Appearance of Donor Solution” value ([2]; run 2, set pH 3)?
Answer: The value was “Little RMZ solid”.
